Laboratory results from patent US6222035A, “[1,2,4] triazolo [1,5-C] pyrimidine derivatives” (Kyowa Hakko Kogyo Co., Ltd., priority 1997, dated 2001).
Where a name gives a salt, the structure may show the parent alone.

Key:
[1] = system: haloperidol-induced catalepsy in mice; assay: Activity on haloperidol-induced Catalepsy; type: in vivo, mouse (male ddY); details: 10 mg/kg oral; for Total score (catalepsy): 10 animals, maximum 50 points, control 50; for Number of Animals showing remission: catalepsy score 4 points or less in 10 cases; for Remission ratio (%): haloperidol-induced catalepsy
Method: Activity on haloperidol-induced Catalepsy
Parkinson's disease is a disease based on the degeneration and cell death of the nigrostriatal dopaminergic neuron. When haloperidol (dopamine D1/D2 antagonist) is administered, catalepsy is induced by the block of postsynaptic D2 receptor. This haloperidol-induced catalepsy is known as a classic model in which symptoms of Parkinson's disease are produced by drug administration [European Journal of Pharmacology, 182: 327 (1990) and U.S. Pat. No. 3,991,207].
This test was carried out using 10 animals per group of male ddY mice of 5 week age (22 to 24 g in body weight, Japan SLC). Haloperidol (manufacturedby Janssen) was suspended in 0.3% CMC and administered intraperitoneally into mice at a dose of 1.0 mg/kg. Each test compound was used by mixing it with Tween 80 and then suspending it in distilled water for injection (manufactured by Otsuka Pharmaceutical). Also, L-DOPA (manufactured by Kyowa Hakko Kogyo Co., Ltd.) and benserazide HCl (manufactured by Kyowa Hakko Kogyo Co., Ltd.) were used by suspending them in 0.3% CMC. […] All of the test compounds were administered orally in a dose of 10 mg/kg, and 100 mg/kg of L-DOPA and 25 mg/kg of benserazide were used in combination as a control drug and administered by intraperitoneal injection. The catalepsy score was evaluated by the judging criteria shown in the above-described Table 3.
The effect was judged by total catalepsy scores of 10 animals in one group (the maximum is 50 points). When the total score was 40 points or less, the activity of drugs was judged positive. The number of animals showing remission of catalepsy was expressed by the number of cases in which the catalepsy score was 4 points or less in 10 cases. The catalepsy remission ratio was expressed as the percentage of the total score in the test compound-administered group to the total score in the control group.

adenosine A2A receptor = target: T1, adenosine A2A receptor (Rattus norvegicus, UniProt P30543); assay: Adenosine receptor binding activity (adenosine A2A receptor binding test), 3H-CGS 21680 binding; details: 2 h, read-out: A2A receptor inhibition ratio (%); for inhibition at 0.1 µM: 10^-7 M; for inhibition at 0.01 µM: 10^-8 M
T1 construct: from tissue; host or cells: rat corpus striatum, washed membrane suspension
Method: Adenosine receptor binding activity (adenosine A2A receptor binding test) This test was carried out by slightly modifying the method of Bruns et al. [Molecular Pharmacology, 29: 331 (1986)].
Corpus striatum of a rat was suspended in an ice-cooled 50 mM tris(hydroxymethyl)aminomethane hydrochloride (hereinafter referred to as "Tris-HCl") buffer (pH 7.7) using Polytron Homogenizer (manufactured by Kinematica Co.). The suspension was centrifuged (50,000×g, 10 minutes), and the obtained precipitate was re-suspended in the same amount of 50 mM Tris-HCl buffer. The suspension was centrifuged under the same conditions, and the final precipitate was suspended in 50 mM Tris-HCl [containing 10 mM magnesium chloride and 0.02 unit/mg tissue of adenosine deaminase (manufactured by Sigma Co.)] to give a tissue concentration of 5 mg (wet weight)/ml.
To 1 ml of the tissue suspension thus prepared were added 50 μl of tritium-labeled CGS 21680 {^3 H-2-[p-(2-carboxyethyl)phenethylamino]-5'-N-ethylcarboxamido)adenosine: 40 Ci/mmol; manufactured by New England Nuclear Co.[The Journal of Pharmacology and Experimental Therapeutics, 251: 888 (1989)]} (final concentration:4.0 nM) and 50 μl of a test compound. The resulting mixture was allowed to stand for 120 minutes at 25° C., and then rapidly filtered by suction through a glass fiber filter (GF/C, manufactured by Whatman Co.) The filter was immediately washed three times with […] of an ice-cooled 50 mM Tris-HCl buffer, and transferred to a vial, a scintillator (EX-H , manufactured by Wako Pure Chemical Industries, Ltd.) was added thereto, and the radioactivity on the filter was determined with a liquid scintillation counter (manufactured by Packard Instrument Co.) […]
The inhibition ratio of the test compound against the A2A receptor binding (^3 H-CGS 21680 binding) was calculated by the following equation:
Inhibition ratio (%)={1-(Amount of the binding in the presence of the test compound-Amount of the nonspecific binding)/(Amount of the total binding-Amount of the nonspecific binding)}×100
(Note) Amount of the total binding means the amount of radioactivity of ^3 H-CGS 21680 bound in the absence of the test compound. Amount of the nonspecific binding means the amount of radioactivity of ^3 H-CGS 21680 bound in the presence of 100 μM cyclopentyladenosine (CPA, manufactured by Sigma Co.) Amount of the binding in the presence of the test compound means the amount of radioactivity of ^3 H-CGS 21680 bound in the presence of the test compound at various levels of concentrations.

[2] = system: CGS 21680-induced catalepsy in mice; assay: Activity on CGS 21680-induced Catalepsy; type: in vivo, mouse (male ddY); details: 10 mg/kg oral; for Total score (catalepsy): 10 animals, maximum 50 points, control 48; for Number of Animals showing remission: catalepsy score 4 points or less in 10 cases; for inhibition in vivo at 10 mg/kg: Mus musculus, CGS 21680-induced catalepsy, read-out: Remission ratio (%)
Procedure, shortened: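 Male ddY mice (5 weeks, 10 per group) received CGS 21680 10 μg/20 μl intracerebroventricularly; test compounds given orally at 10 mg/kg in 0.3% Tween 80 suspension. Catalepsy scored 1 h after dosing on a 4.5 cm bar; total group score (maximum 50) compared with control; ≤4 per animal counted as remission.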

[3] = system: clonidine-induced aggressive behavior in mice; assay: Activity on Clonidine-induced Aggressive Behavior; type: in vivo, mouse (male ddY); details: 10 mg/kg po
Method: Activity on Clonidine-induced Aggressive Behavior
Effect of test compounds to increase aggressive behavior induced by the intraperitoneal injection of clonidine [European Journal of Pharmacology, 29: 374 (1968)] was examined.
This test was carried out using 2 animals per group of male ddY mice of 20 to 25 g in body weight (Japan SLC). Each test compound was used by mixing it with Tween 80 and then suspending it in distilled water for injection (manufactured by Otsuka Pharmaceutical), and clonidine hydrochloride (manufactured by Sigma Co.) was used by dissolving it in physiological saline (manufactured by Otsuka Pharmaceutical). […] The number of aggressive behavior of each mouse was measured for 30 minutes immediately after the administration of clonidine. The effect was judged by comparing values of the number of aggressive behavior in the control and those in test compound-administered groups (significance test: Student t-test).

T1 sequence (P30543 whole entry): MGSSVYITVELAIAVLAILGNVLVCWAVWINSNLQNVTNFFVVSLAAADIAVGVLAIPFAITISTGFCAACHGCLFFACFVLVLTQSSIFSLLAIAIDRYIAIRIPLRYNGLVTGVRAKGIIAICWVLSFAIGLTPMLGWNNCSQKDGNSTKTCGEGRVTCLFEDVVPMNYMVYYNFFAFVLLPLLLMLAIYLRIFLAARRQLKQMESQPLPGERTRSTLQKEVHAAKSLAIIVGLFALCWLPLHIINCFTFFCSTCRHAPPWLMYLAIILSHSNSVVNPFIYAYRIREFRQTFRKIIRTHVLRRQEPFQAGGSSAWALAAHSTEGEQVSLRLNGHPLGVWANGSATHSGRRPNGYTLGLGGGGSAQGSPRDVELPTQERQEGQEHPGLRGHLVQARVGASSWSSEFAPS

SMILES | Total score (catalepsy) [1] | Number of Animals showing remission [1] | Remission ratio (%) [1] | inhibition at 0.1 µM (adenosine A2A receptor) | inhibition at 0.01 µM (adenosine A2A receptor) | Total score (catalepsy) [2] | Number of Animals showing remission [2] | inhibition in vivo at 10 mg/kg [2] | Number of attacks in test compound group/number of attacks in control group [3] | Number of attacks (count; average ± S.E.M.), test compound group ([3]; *: p < 0.05, 10 animals)
Nc1nc(N2CCN(CCc3ccccc3)CC2)cc2nc(-c3ccco3)nn12 [Compound 46, 5-Amino-2-(2-furyl)-7-[4-(2-phenylethyl)piperazinyl][1,2,4]triazolo[1,5-c]pyrimidine] | 13 | 10 | 74% | 79% | 35% | 9 | 10 | 78% |  | 
Nc1nc(N2CCN(Cc3ccccc3)CC2)cc2nc(-c3ccco3)nn12 [Compound 42, 5-Amino-7-(4-benzylpiperazinyl)2-(2-furyl)[1,2,4]triazolo[1,5-c]pyrimidine] | 1 | 10 | 98% | 82% | 43% | 12 | 9 | 72% |  | 
Nc1nc(N2CCN(CCOc3ccccc3)CC2)cc2nc(-c3ccco3)nn12 [Compound 90, 5-Amino-2-(2-furyl)-7-(4-(2-phenoxyethyl)piperazinyl)[1,2,4]triazolo[1,5-c]pyrimidine hydrochloride] |  |  |  | 82% |  | 12 | 9 | 80% |  | 
COCCCN1CCN(c2cc3nc(-c4ccco4)nn3c(N)n2)CC1 [Compound 99, 5-Amino-2(2-furyl)-7-(4-(3-methoxypropyl)piperazinyl)[1,2,4]triazolo[1,5-c]pyrimidine] |  |  |  | 59% |  | 5 | 10 | 90% |  | 
Nc1nc(Oc2ccc(Cl)cc2)cc2nc(-c3ccco3)nn12 [Compound 35, 5-Amino-7-(4-chlorophenoxy)-2-(2-furyl)[1,2,4]triazolo[1,5-c]pyrimidine] |  |  |  | 82% | 43% | 15 | 8 | 66% |  | 
C[C@@H]1CN(c2cc3nc(-c4ccco4)nn3c(N)n2)C[C@H](C)N1Cc1ccccc1 [Compound 116, 5-Amino-7-(4-benzyl-cis-3,5-dimethylpiperazinyl)-2-(2-furyl)[1,2,4]triazolo[1,5-c]pyrimidine] |  |  |  | 38% |  | 5 | 10 | 90% |  | 
C[C@@H]1CN(c2cc3nc(-c4ccco4)nn3c(N)n2)C[C@H](C)N1C [Compound 115, 5-Amino-7-(cis-3,5-dimethyl-4-methylpiperazinyl)-2-(2-furyl)[1,2,4]triazolo[1,5-c]pyrimidine hydrochloride] |  |  |  | 22% |  | 5 | 10 | 88% |  | 
C[C@@H]1CN(c2cc3nc(-c4ccco4)nn3c(N)n2)C[C@H](C)N1CCO [Compound 120, 5-Amino-7-(cis-3,5-dimethyl-4-(2-hydroxyethyl)piperazinyl)-2-(2-furyl)[1,2,4]triazolo[1,5-c]pyrimidine] |  |  |  | 29% |  | 3 | 10 | 94% |  | 
Nc1nc(N2CCOCC2)cc2nc(-c3ccco3)nn12 [Compound 39, 5-Amino-2-(2-furyl)-7-morpholino[1,2,4]triazolo[1.5-c]pyrimidine] |  |  |  |  |  | 20 | 9 | 56% | 8.1 | 9.70 ± 3.42 count
CC(C)C(=O)c1cnc(N)n2nc(-c3ccco3)nc12 [Compound 153, 5-Amino-8-(1-oxo-2-methylpropyl)-2-(2-furyl)[1,2,4]triazolo[1,5-c]pyrimidine] |  |  |  | 48% |  | 10 | 9 | 80% |  | 
CCCCN1CCN(c2cc3nc(-c4ccco4)nn3c(N)n2)CC1 [Compound 135, 5-Amino-7-(4-butylpiperazinyl)-2-(2-furyl)[1,2,4]triazolo[1,5-c]pyrimidine] |  |  |  | 49% |  | 9 | 9 | 80% |  | 
COc1cccc(OC)c1Oc1cc2nc(-c3ccco3)nn2c(N)n1 [Compound 32, 5-Anino-7-(2,6-dimethoxyphenoxy)-2-(2-furyl)[1,2,4]triazolo[1,5-c]pyrimidine] | 37 | 5 | 26% | 89% | 71% | 21 | 9 | 54% |  | 
CCNC(=O)c1cnc(N)n2nc(-c3ccco3)nc12 [Compound 169, 5-Amino-8-ethylcarbamoyl-2-(2-furyl)[1,2,4]triazolo[1,5-c]pyrimidine] |  |  |  | 96% |  | 9 | 10 | 82% |  | 
CCOC(=O)c1cnc(N)n2nc(-c3ccco3)nc12 [Compound 55, 5-Amino-8-ethoxycarbonyl-2-(2-furyl)[1,2,4]triazolo[1,5-c]pyrimidine] | 35 | 5 | 30% |  |  | 29 | 9 | 36% |  | 
